From patent publication US20240190854A1, “PYRIMIDINE OR PYRIDINE DERIVATIVES USEFUL AS HCN2 MODULATORS” (King's College London, priority 2021, published 2024) come the findings set out here.

Data set [1] addresses T1, HCN2 (Homo sapiens (Human), UniProt Q9UL51). Nature of the data set: HCN2 current assay using the Sophion Qube. In kind it is cell-based. To be noted: Sophion Qube protocol; read-out: SQ HCN2 IC50. Here is the method:
(§1) Example 126B, Using the Sophion Qube
(§2) Solutions for recording HCN currents were:
(§3) This voltage protocol was applied every 20 seconds for the duration of the experiment. Both the vehicle (0.3% DMSO) and full block (3 mM CsCl) addition periods were applied for 10 experimental sweeps each.
(§4) The current amplitudes were measured by subtracting metric A from metric B (see FIG. 2) with inhibition calculated by normalising to the vehicle addition (0.3% DMSO) and full inhibition by 3 mM CsCl in the same well.
(§5) In total, compound was applied to the well for 600 seconds.

The target of data set [2] is T2, HCN1 (Homo sapiens (Human), UniProt O60741). Nature of the data set: HCN1 current assay using the Sophion Qube. The conditions noted are these: Sophion Qube protocol; read-out: SQ HCN1 IC50. It counts as cell-based. Here is the method: as §1, §2, §3, §4, §5
Data set [3] concerns the target T3, hERG channel (Homo sapiens (Human), UniProt Q12809). Description: hERG assay using Sophion Qube. To be noted: Sophion Qube protocol; read-out: SQ hERG IC50. In kind it is cell-based. Here is the method: Example 127B, Using Sophion Qube
Solutions for recording hERG currents were:
This voltage protocol was applied every 15 seconds for the duration of the experiment. Both the vehicle and 1st compound addition periods were applied for 10 sweeps. The 2nd compound addition period was applied for 20 sweeps. The compound concentration was added to the test well twice to assure complete exchange of the external buffer with the test compound. In total, compound was applied to the well for 450 seconds.

In data set [4] the target is T4, hNav1.5 (Homo sapiens (Human), UniProt Q14524).
Experimental: The cells were held at −100 mV followed by a depolarising step to −10 mV for 100 milliseconds before stepping back to −100 mV, this represents 1 experimental sweep.
For tonic block (0.1 Hz), the peak currents evoked by the step to −10 mV were measured for the analysis of the percentage inhibition by test compounds. For use-dependent block (4 Hz), the peak current evoked at the 20th depolarising step to −10 mV was measured for the analysis of the percentage inhibition by test compounds. Peak currents were first normalised to the vehicle addition (0.3% DMSO) in the same well.
The target of data set [5] is T3, hERG channel. Description: hERG assay using IonWorks Quattro. It counts as cell-based. To be noted: IonWorks protocol; read-out: IW hERG IC50.
The target of data set [6] is T1, HCN2. Description: HCN2 current assay using PatchXpress 7000A. In kind it is cell-based. The conditions noted are these: PatchXpress protocol; read-out: PX HCN2 IC50. The procedure, abridged:
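Automated patch clamp (PatchXpress 7000A) at about 22° C. HCN current taken as leak-subtracted peak inward current at the end of a step to −110 mV, with a return to −30 mV for 8 seconds. Cumulative concentrations applied 7 minutes each; amplitude normalised to control.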

For data set [7], the target named is T4, hNav1.5. This is another data set of the same source.
Experimental: Solutions for recording Nav1.5 currents were:
Electrophysiological recordings were made from a human embryonic kidney (HEK) cell line stably expressing the full length hNav1.5. Population patch clamp measurements were made in the perforated patch clamp configuration (100 μg ml^−1 amphotericin) at room temperature (approx. 22° C.) using an IonWorks Quattro from Molecular Devices. […] Currents were first measured under control (pre-compound addition) conditions. […] Currents were measured from the depolarising step at the 15th pulse and referenced to the holding current.
A further data set concerns the target HCN4 (Homo sapiens (Human), UniProt Q9Y3Q4). Description: HCN4 current assay using PatchXpress 7000A. It counts as cell-based. To be noted: PatchXpress protocol; read-out: PX HCN4 IC50. The method, boiled down: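 Peak inward current taken at end of a −130 mV pulse, leak-subtracted, and normalized to the control amplitude. Cumulative concentrations applied for 7 min each at room temperature (approximately 22° C.) on an automated patch-clamp platform.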

Data set [8] has as its target T2, HCN1. Nature of the data set: HCN1 current assay using PatchXpress 7000A. In kind it is cell-based. The conditions noted are these: PatchXpress protocol; read-out: PX HCN1 IC50. Here is the method: Example 126A, Using PatchXpress 7000A
as §2
The membrane voltage was then stepped back to −30 mV for a further 8 seconds.
The peak inward current measured at the end of the pulse to −110 mV (HCN1 and HCN2) or −130 mV (HCN4) was measured and any leak current subtracted to calculate the HCN current. The HCN current amplitude was measured after each control or compound addition and normalized to the control amplitude (Control A).
All experiments were performed at room temperature (approximately 22° C.).
Each test compound concentration was applied to the cell for seven (7) minutes, at which point the next cumulative concentration was applied.

The target of a further data set is MDR1 (P-glycoprotein) (Homo sapiens (Human), UniProt P08183). Description: in vitro. To be noted: dog, MDCK-MDR1, pH 7.4.

The structures appear in SMILES notation. Structures can show the parent of a compound that is named as a salt. Where two headings read alike, the source gives them in different places.

T2 sequence (O60741 whole entry, species assumed): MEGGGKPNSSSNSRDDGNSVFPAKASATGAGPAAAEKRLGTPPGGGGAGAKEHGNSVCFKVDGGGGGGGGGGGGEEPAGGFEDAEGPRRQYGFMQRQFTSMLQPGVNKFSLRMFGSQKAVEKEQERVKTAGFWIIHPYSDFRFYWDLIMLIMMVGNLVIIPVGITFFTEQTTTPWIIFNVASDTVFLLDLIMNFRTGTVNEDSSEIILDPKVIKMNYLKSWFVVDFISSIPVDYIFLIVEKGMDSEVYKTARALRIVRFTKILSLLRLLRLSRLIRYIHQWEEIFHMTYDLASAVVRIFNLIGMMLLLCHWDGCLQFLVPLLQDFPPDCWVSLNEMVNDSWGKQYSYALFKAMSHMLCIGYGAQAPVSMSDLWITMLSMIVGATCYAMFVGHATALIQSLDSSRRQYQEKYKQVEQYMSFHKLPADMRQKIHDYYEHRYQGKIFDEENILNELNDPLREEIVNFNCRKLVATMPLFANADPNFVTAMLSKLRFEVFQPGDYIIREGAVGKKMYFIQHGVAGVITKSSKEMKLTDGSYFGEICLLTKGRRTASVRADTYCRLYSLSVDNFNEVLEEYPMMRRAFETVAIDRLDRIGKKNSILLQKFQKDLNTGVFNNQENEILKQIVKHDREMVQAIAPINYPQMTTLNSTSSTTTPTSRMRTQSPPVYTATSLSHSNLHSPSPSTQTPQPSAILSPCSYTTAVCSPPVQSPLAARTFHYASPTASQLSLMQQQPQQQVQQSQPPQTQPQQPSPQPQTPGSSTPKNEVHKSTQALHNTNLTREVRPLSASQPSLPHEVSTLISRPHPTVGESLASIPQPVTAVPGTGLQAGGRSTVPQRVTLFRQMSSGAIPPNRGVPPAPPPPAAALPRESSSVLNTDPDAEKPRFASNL
T4 sequence (Q14524 whole entry): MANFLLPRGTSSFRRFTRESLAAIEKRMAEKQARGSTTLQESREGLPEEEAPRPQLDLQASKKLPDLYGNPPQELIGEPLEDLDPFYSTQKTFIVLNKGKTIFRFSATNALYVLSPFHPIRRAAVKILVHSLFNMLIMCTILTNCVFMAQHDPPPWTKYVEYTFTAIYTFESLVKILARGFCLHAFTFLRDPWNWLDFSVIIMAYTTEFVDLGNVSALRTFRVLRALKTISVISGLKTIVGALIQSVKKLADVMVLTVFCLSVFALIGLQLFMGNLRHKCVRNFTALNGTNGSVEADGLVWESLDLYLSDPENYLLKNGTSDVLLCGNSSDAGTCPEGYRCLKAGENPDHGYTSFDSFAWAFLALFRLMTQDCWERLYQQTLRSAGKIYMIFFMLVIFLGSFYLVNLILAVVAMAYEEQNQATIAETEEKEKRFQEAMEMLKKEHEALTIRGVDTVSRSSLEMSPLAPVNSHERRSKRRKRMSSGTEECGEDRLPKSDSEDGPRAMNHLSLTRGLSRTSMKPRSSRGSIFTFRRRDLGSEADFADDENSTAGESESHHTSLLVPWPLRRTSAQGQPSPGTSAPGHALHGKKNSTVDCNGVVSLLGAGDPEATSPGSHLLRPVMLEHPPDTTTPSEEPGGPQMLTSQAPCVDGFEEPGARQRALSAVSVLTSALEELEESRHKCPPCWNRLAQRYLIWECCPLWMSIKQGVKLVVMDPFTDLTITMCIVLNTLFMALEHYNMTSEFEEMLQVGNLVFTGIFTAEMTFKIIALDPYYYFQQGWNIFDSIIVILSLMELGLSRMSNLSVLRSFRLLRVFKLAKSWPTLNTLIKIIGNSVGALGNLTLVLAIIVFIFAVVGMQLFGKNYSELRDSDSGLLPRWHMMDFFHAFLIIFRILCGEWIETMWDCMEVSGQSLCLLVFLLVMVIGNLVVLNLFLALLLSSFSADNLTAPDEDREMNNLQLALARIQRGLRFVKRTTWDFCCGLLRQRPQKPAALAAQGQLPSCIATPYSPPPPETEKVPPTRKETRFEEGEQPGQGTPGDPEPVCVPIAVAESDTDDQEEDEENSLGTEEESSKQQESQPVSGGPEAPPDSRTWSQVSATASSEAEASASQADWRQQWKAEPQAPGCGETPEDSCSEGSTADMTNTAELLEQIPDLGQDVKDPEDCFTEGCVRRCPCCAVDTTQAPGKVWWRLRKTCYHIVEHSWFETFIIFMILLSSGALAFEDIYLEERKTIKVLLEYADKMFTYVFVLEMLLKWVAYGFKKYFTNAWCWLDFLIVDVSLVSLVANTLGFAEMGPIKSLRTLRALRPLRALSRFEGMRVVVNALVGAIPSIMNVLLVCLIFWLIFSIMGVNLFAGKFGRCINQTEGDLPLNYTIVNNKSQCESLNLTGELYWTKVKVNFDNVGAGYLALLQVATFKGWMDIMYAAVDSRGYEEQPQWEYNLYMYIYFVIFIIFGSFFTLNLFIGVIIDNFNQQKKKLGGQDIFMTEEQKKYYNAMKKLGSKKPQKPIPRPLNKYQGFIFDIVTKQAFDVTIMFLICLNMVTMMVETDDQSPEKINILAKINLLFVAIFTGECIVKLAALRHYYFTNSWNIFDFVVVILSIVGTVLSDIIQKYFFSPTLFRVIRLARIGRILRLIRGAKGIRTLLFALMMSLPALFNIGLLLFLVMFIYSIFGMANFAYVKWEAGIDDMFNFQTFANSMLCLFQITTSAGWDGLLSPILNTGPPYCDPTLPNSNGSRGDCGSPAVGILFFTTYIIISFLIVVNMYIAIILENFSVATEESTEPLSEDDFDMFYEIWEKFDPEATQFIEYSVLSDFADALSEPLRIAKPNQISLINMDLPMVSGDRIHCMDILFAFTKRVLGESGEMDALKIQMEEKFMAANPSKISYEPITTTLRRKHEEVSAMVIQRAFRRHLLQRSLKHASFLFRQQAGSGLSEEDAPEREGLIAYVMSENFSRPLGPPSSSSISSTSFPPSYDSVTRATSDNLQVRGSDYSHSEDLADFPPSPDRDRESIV
T1 sequence (Q9UL51 whole entry): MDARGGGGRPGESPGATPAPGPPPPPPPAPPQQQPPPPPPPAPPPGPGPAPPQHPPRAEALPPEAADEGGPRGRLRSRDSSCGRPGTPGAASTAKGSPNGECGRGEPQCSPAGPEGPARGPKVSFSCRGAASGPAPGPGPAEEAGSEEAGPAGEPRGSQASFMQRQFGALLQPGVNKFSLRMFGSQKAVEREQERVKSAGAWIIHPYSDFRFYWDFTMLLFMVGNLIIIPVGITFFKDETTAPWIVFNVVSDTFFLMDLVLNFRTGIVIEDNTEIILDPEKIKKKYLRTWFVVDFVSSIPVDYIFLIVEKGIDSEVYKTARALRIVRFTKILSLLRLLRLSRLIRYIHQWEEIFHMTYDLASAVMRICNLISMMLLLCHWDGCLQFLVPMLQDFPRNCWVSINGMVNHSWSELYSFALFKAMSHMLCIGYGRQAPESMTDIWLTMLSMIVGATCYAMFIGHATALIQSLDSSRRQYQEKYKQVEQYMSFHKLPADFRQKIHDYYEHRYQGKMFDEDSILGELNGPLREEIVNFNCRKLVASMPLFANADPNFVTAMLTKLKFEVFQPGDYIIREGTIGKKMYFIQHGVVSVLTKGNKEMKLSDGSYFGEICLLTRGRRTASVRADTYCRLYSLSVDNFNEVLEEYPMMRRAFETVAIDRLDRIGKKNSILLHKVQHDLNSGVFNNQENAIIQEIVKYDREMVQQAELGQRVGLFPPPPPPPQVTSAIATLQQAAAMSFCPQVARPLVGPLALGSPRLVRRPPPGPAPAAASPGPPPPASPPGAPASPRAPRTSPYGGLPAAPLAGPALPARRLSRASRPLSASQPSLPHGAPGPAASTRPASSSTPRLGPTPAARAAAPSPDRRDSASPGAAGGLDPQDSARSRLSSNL
Chain of MDR1 (P-glycoprotein) (P08183 whole entry): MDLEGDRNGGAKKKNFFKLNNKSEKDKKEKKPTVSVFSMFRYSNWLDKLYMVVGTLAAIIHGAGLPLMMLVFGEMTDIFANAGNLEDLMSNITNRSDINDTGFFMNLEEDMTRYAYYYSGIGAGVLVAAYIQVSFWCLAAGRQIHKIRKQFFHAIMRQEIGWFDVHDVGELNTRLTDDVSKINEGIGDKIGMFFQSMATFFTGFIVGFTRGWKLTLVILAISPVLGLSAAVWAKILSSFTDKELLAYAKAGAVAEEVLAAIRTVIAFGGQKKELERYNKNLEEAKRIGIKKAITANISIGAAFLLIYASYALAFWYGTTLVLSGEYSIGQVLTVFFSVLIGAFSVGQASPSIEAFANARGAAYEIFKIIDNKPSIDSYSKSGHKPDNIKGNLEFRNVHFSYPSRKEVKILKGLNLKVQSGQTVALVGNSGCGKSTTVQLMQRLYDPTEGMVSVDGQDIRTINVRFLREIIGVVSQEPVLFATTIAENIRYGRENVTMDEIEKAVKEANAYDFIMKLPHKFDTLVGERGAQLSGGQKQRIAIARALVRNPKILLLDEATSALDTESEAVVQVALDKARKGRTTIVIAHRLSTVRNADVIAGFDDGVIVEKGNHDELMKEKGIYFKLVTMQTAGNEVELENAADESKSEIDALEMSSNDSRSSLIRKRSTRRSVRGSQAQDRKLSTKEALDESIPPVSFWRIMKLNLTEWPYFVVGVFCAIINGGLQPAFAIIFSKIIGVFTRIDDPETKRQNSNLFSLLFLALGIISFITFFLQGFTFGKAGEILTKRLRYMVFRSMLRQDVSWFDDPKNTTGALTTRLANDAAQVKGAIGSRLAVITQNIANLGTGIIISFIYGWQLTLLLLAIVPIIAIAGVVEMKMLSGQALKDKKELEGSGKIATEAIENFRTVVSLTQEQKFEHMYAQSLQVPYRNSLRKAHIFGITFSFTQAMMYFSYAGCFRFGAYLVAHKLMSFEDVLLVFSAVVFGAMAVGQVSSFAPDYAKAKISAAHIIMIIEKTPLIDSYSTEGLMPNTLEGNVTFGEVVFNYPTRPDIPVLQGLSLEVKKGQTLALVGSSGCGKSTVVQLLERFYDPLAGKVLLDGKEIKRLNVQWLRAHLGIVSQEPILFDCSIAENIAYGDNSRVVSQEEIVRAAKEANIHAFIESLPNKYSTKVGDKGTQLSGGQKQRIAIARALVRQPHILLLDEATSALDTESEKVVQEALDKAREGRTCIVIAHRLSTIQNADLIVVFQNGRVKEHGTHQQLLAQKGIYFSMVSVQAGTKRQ

For the molecule `CS(=O)(=O)c1ccc(F)c(C[C@H](N)c2ccccc2-c2noc3cc(C(F)(F)F)ccc23)n1` [Example 10, (S)-2-(3-Fluoro-6-methylsulfonylpyridine-2-yl)-1-[2-(6-trifluoromethylbenzo[d]isoxazol-3-yl)phenyl]ethan-1-amine hydrochloride], the IC50 on HCN2 [1] worked out at 17.2 µM.
As to `N[C@@H](Cc1nc(Br)ccc1F)c1ccccc1-c1noc2cc(F)ccc12` [Example 15, (S)-2-(6-Bromo-3-fluoropyridine-2-yl)-1-[2-(6-fluorobenzo[d]isoxazol-3-yl)phenyl]-ethan-1-amine hydrochloride], the IC50 on HCN2 [1] was 1.2 µM; on HCN1 [2] it was 5.1 µM.
For the molecule `N[C@@H](Cc1nc(Br)ccc1F)c1ccccc1-c1noc2cc(Br)ccc12` [Example 16, (S)-2-(6-Bromo-3-fluoropyridine-2-yl)-1-[2-(6-bromobenzo[d]isoxazol-3-yl)phenyl]-ethan-1-amine], the IC50 on HCN2 [1] is 2 µM; on HCN1 [2] it was 3 µM.
Regarding `N#Cc1ccc2c(-c3ccccc3[C@@H](N)Cc3nc(Br)ccc3F)noc2c1` [Example 17, (S)-2-(6-Bromo-3-fluoropyridine-2-yl)-1-[2-(6-cyanobenzo[d]isoxazol-3-yl)phenyl]-ethan-1-amine hydrochloride], the IC50 turned out to be 5.8 µM on HCN2 [1] and 3.1 µM on hERG channel [3].
As for `CS(=O)(=O)c1ccc(F)c(C[C@H](N)c2ccccc2-c2noc3cc(Br)ccc23)n1` [Example 21, (S)-1-[2-(6-Bromobenzo[d]isoxazol-3-yl)phenyl]-2-(3-Fluoro-6-methylsulfonylpyridin-yl)ethan-1-amine hydrochloride], the IC50 on HCN2 [1] turned out to be 2.5 µM; on HCN1 [2], 5.3 µM.
As to `Cc1ccc(S(C)(=O)=O)nc1C[C@H](N)c1ccccc1-c1noc2cc(Cl)ccc12` [Example 23, (S)-1-[2-(6-Chlorobenzo[d]isoxazol-3-yl)phenyl]-2-(3-methyl-6-methylsulfonylpyridin-2-yl)ethan-1-amine hydrochloride], the IC50 against hNav1.5 [4] stood at 13.9 µM; at HCN2 [1] it was 1.7 µM; on hERG channel [3] it was 1.2 µM.
Turning to `CC(C)S(=O)(=O)c1ccc(F)c(C[C@H](N)c2ccccc2-c2noc3cc(Cl)ccc23)n1` [Example 25, (S)-1-[2-(6-Chlorobenzo[d]isoxazol-3-yl)phenyl]-2-(3-fluoro-6-isopropyisulfonylpyridin-2-yl)ethan-1-amine hydrochloride], the IC50 at HCN2 [1] was over 30 µM.
With `N#Cc1ccc(F)c(C[C@H](N)c2ccccc2-c2noc3cc(Br)ccc23)n1` [Example 27, (S)-2-{2-Amino-2-[2-(6-bromobenzo[d]isoxazol-3-yl)phenyl]ethyl}-3-fluoropyridine-6-carbonitrile], the IC50 at HCN2 [1] came to 1.4 µM.
On the same count and under the same terms, under `Cc1ccc(C#N)nc1C[C@H](N)c1ccccc1-c1noc2cc(Br)ccc12` [Example 28, (S)-2-{2-Amino-2-[2-(6-bromobenzo[d]isoxazol-3-yl)phenyl]ethyl}-3-methylpyridine-6-carbonitrile] stands 1 µM.
`Cn1nc(-c2ccccc2[C@@H](N)Cc2ccccn2)c2ccccc21` [Example 60, (S)-1-[2-(1-Methyl-1H-indazole-3-yl)phenyl]-2-(pyridine-2-yl)ethan-1-amine hydrochloride]: the IC50 on hERG channel [5] is 0.32 µM; at HCN2 [6], 3.1 µM; on hNav1.5 [7] it was 9.2 µM; at HCN4, over 30 µM; on HCN1 [8], over 30 µM.
On to `N[C@@H](Cc1ccc(F)cn1)c1ccccc1-c1noc2ccccc12` [Example 69, (S)-1-[2-(Benzo[d]isoxazol-3-yl)phenyl]-2-(5-fluoropyridin-2-yl)ethan-1-amine hydrochloride], for which the IC50 on HCN2 [6] was 0.5 µM; at HCN4 it was 8.2 µM; at HCN1 [8] it was 1.4 µM.
In the same order, the values of `COc1ccnc(C[C@H](N)c2ccccc2-c2noc3ccccc23)c1` [Example 70, (S)-1-[2-(Benzo[d]isoxazol-3-yl)phenyl]-2-(4-methoxypyridin-2-yl)ethan-1-amine] are 1 µM, 19.1 µM and 3.8 µM.
As for `N#Cc1ccc(F)c(C[C@H](N)c2ccccc2-c2noc3ccccc23)n1` [Example 71, (S)-1-[2-(Benzo[d]isoxazol-3-yl)phenyl]-2-(6-cyano-3-fluoropyridin-2-yl)ethan-1-amine formate], the values for the IC50 on HCN2 [6], on HCN4 and on HCN1 [8] were 0.5 µM, 3.5 µM and 4.4 µM, respectively.
For `NC(=O)c1ccc(F)c(C[C@H](N)c2ccccc2-c2noc3ccccc23)n1` [Example 72, (S)-6-{2-Amino-2-[2-(benzo[d]isoxazol-3-yl)phenyl]ethyl}-5-fluoropyridine-2-carboxamide formate], the IC50 on hERG channel [5] came out at 20.9 µM; at HCN2 [6], 1.2 µM; at hNav1.5 [7], 18.6 µM; on HCN4, 10.3 µM; at HCN1 [8], 1 µM. In addition, the efflux ratio at 1 h, 10 μM at MDR1 (P-glycoprotein) was determined as 11.3.
For `Cc1ccc(F)c(C[C@H](N)c2ccccc2-c2noc3ccccc23)n1` [Example 73, (S)-1-[2-(Benzo[d]isoxazol-3-yl)phenyl]-2-(3-fluoro-6-methylpyridin-2-yl)ethan-1-amine hydrochloride], the IC50 came to 0.4 µM at HCN2 [6], 2.8 µM at HCN4 and 0.5 µM at HCN1 [8].
As to `CN(C)C(=O)c1ccc(F)c(C[C@H](N)c2ccccc2-c2noc3ccccc23)n1` [Example 74, (S)-6-{2-Amino-2-[2-(benzo[d]isoxazol-3-yl)phenyl]ethyl}-5-fluoro-N,N-dimethylpyridin-2-carboxamide hydrochloride], the IC50 amounted to 9.9 µM at hERG channel [5]; 1.8 µM at HCN2 [6]; 11.4 µM against hNav1.5 [7]; 20.9 µM at HCN4; 4.6 µM at HCN1 [8]. The efflux ratio at 1 h, 10 μM on MDR1 (P-glycoprotein) turned out to be 16.7.
As to `Cc1cccc(C[C@H](N)c2ccccc2-c2noc3ccccc23)n1` [Example 114, (S)-1-[2-(Benzo[d]isoxazol-3-yl)phenyl]-2-(6-methylpyridine-2-yl)ethan-1-amine hydrochloride], the values for the IC50 on HCN2 [6], at HCN4 and on HCN1 [8] were 0.62 µM, 9 µM and 4.5 µM, respectively.
As to `N#Cc1cccc(C[C@H](N)c2ccccc2-c2noc3ccccc23)n1` [Example 116, (S)-1-[2-(Benzo[d]isoxazol-3-yl)phenyl]-2-(6-cyanopyridine-2-yl)ethan-1-amine hydrochloride], the IC50 at hERG channel [5] is 10.3 µM; on HCN2 [6], 0.7 µM; on hNav1.5 [7], 11.1 µM; at HCN4, 13.5 µM; at HCN1 [8], 3.4 µM. For the same molecule, at MDR1 (P-glycoprotein), the efflux ratio at 1 h, 10 μM was 1.1.
Take `Cc1ccc(S(C)(=O)=O)nc1C[C@H](N)c1ccccc1-c1noc2ccccc12` [Example 125, (S)-1-[2-(Benzo[d]isoxazol-3-yl)phenyl]-2-[3-methyl-6-(methylsulfonyl)pyridine-2-yl]ethan-1-amine hydrochloride]: the IC50 was determined as 0.24 µM on HCN2 [6], 1.2 µM at HCN4 and 0.4 µM on HCN1 [8].
